Experimental data reported in EP3294317B1, “ENHANCED ANTIBIOTIC COMPOSITION” (Universitat Autònoma de Barcelona, priority 2015, dated 2016).

Columns and labels:
P. aeruginosa ATCC 27853 = assay: Broth microdilution MIC of other antibiotics with potentiator compounds (Example 2); assay type: cell-based, Pseudomonas aeruginosa; conditions: for Fold increase in bacterial susceptibility to antibiotic indicated: any of ciprofloxacin, amikacin, levofloxacin, tigecycline, imipenem, TMP/SMX (1:19), 0.1 mM potentiator, 1.0% DMSO, 'none' = no antibiotic potentiated
Experimental: (§1) Following the procedure of Example 1, ciprofloxacin, amikacin, levofloxacin, tigecycline, imipenem and the combination trimethoprim/sulfamethoxasole (1:19) were tested. All were purchased from Sigma-Aldrich Co.
(§2) Minimal inhibitory concentration (MIC) of the antibiotic or the test combinations were determined by the broth microdilution method.
(§3) Antibiotic stock solutions were prepared according to CLSI recommendations and sterilizing by passage through 0.20 µm filters.
(§4) Antimicrobial susceptibility testing of these isolates was performed using the broth microdilution (BMD) method, according to CLSI guidelines.
(§5) The fold increase in bacterial susceptibility to antibiotics when combined with the potentiator compound (expressed as MIC in the presence of 1.0% DMSO / MIC in the presence of 0.1 mM of each potentiator compound and 1.0% DMSO) are shown in Table 4: […]

A. baumannii 6963 [1] = assay: Broth microdilution MIC of other antibiotics with potentiator compounds, clinical isolates (Example 4); assay type: cell-based, Acinetobacter baumannii; conditions: any of ciprofloxacin, amikacin, levofloxacin, imipenem, TMP/SMX (1:19), 0.1 mM compound, 1.0% DMSO, 'none' = no antibiotic potentiated
Experimental: (§6) Following the procedure of Example 3, ciprofloxacin, amikacin, levofloxacin, imipenem and the combination trimethoprim/sulfamethoxasole (1:19) were tested. All were purchased from Sigma-Aldrich Co.
as §2, §3, §4
(§7) The fold increase in bacterial susceptibility to antibiotics when combined with the potentiator compound (expressed as MIC in the presence of 1.0% DMSO / MIC in the presence of 0.1 mM of each potentiator compound and 1.0% DMSO) are shown in Table 7: […]

A. baumannii 6799 [2] = assay: as above; assay type: cell-based, Acinetobacter baumannii; conditions: for Fold increase in bacterial susceptibility to TMP/SMX: Trimethoprim:sulfamethoxazole 1:19, MIC in 1.0% DMSO / MIC with 0.1 mM compound and 1.0% DMSO
Experimental: as §6, §2, §3, §4, §7

S. maltophilia 257 [3] = assay: as above; assay type: cell-based, Stenotrophomonas maltophilia; conditions: any of ciprofloxacin, amikacin, levofloxacin, imipenem, TMP/SMX (1:19), 0.1 mM compound, 1.0% DMSO, 'none' = no antibiotic potentiated
Experimental: as §6, §2, §3, §4, §7

[4] = test system: Escherichia coli ATCC 25922; assay: Colistin broth microdilution MIC with potentiator compounds (Example 1); assay type: cell-based; conditions: E. coli ATCC 25922; MIC in the presence of 1.0% DMSO / MIC in the presence of 0.1 mM potentiator compound and 1.0% DMSO; positive = increased, negative = decreased susceptibility, 1 = no effect
[5] = test system: Pseudomonas aeruginosa ATCC 27853; assay: as above; assay type: cell-based; conditions: P. aeruginosa ATCC 27853; MIC in the presence of 1.0% DMSO / MIC in the presence of 0.1 mM potentiator compound and 1.0% DMSO; positive = increased, negative = decreased susceptibility, 1 = no effect
A. baumannii 6963 [6] = assay: Colistin broth microdilution MIC with potentiator compounds, resistant clinical isolates (Example 3); assay type: cell-based, Acinetobacter baumannii; conditions: MIC in the presence of 1.0% DMSO / MIC in the presence of 0.1 mM compound and 1.0% DMSO, positive = increased susceptibility, 1 = no effect
Experimental: (§8) The potentiator effect of the compound of the invention and other compounds disclosed herein was tested using colistin sulfate as antibiotic and in combination with the enhancer compounds in front of resistant clinical isolates.
(§9) Tests were performed to determine the potentiator effect of the compound of the invention and other compounds disclosed herein with multidrug-resistant S. maltophilia and A. baumannii clinical strains as shown in Table 5: TABLE 5
(§10) For this experiment the potentiator compound was added to a colistin broth microdilution assay at a final concentration of 0.1mM. MICs were determined as described in the Example 1.
as §5, with “Colistin minimal inhibitory concentration (MIC), expressed in µg/mL, and the” for “The”, “colistin” for “antibiotics”, “6:” for “4:”

A. baumannii 6799 [7] = assay: as above; assay type: cell-based, Acinetobacter baumannii; conditions: MIC in the presence of 1.0% DMSO / MIC in the presence of 0.1 mM compound and 1.0% DMSO, positive = increased susceptibility, 1 = no effect
Experimental: as §8, §9, §10
as §5, with “Colistin minimal inhibitory concentration (MIC), expressed in µg/mL, and the” for “The”, “colistin” for “antibiotics”, “6:” for “4:”

A. baumannii ATCC 15308 = assay: Broth microdilution MIC of other antibiotics with potentiator compounds (Example 2); assay type: cell-based, Acinetobacter baumannii; conditions: for Fold increase in bacterial susceptibility to TMP/SMX: Trimethoprim:sulfamethoxazole 1:19, MIC in 1.0% DMSO / MIC with 0.1 mM potentiator compound and 1.0% DMSO
Experimental: as §1, §2, §3, §4, §5

S. maltophilia 257 [8] = assay: Colistin broth microdilution MIC with potentiator compounds, resistant clinical isolates (Example 3); assay type: cell-based, Stenotrophomonas maltophilia; conditions: MIC in the presence of 1.0% DMSO / MIC in the presence of 0.1 mM compound and 1.0% DMSO, positive = increased susceptibility, 1 = no effect
Experimental: as §8, §9, §10
as §5, with “Colistin minimal inhibitory concentration (MIC), expressed in µg/mL, and the” for “The”, “colistin” for “antibiotics”, “6:” for “4:”

S. maltophilia M30 = assay: as above; assay type: cell-based, Stenotrophomonas maltophilia; conditions: MIC in the presence of 1.0% DMSO / MIC in the presence of 0.1 mM compound and 1.0% DMSO, positive = increased susceptibility, 1 = no effect
Experimental: as §8, §9, §10
as §5, with “Colistin minimal inhibitory concentration (MIC), expressed in µg/mL, and the” for “The”, “colistin” for “antibiotics”, “6:” for “4:”

[9] = test system: Stenotrophomonas maltophilia ATCC 13637; assay: Colistin broth microdilution MIC with potentiator compounds (Example 1); assay type: cell-based; conditions: S. maltophilia ATCC 13637; MIC in the presence of 1.0% DMSO / MIC in the presence of 0.1 mM potentiator compound and 1.0% DMSO; positive = increased, negative = decreased susceptibility, 1 = no effect
[10] = test system: Salmonella enterica subsp. enterica ATCC 14028; assay: as above; assay type: cell-based; conditions: S. enterica ATCC 14028; MIC in the presence of 1.0% DMSO / MIC in the presence of 0.1 mM potentiator compound and 1.0% DMSO; positive = increased, negative = decreased susceptibility, 1 = no effect
[11] = test system: Acinetobacter baumannii ATCC 15308; assay: as above; assay type: cell-based; conditions: A. baumannii ATCC 15308; MIC in the presence of 1.0% DMSO / MIC in the presence of 0.1 mM potentiator compound and 1.0% DMSO; positive = increased, negative = decreased susceptibility, 1 = no effect
[12] = test system: Escherichia coli ATCC 9637; assay: as above; assay type: cell-based; conditions: E. coli ATCC 9637; MIC in the presence of 1.0% DMSO / MIC in the presence of 0.1 mM potentiator compound and 1.0% DMSO; positive = increased, negative = decreased susceptibility, 1 = no effect
[13] = test system: S. maltophilia ATCC 13637; assay: Broth microdilution MIC of other antibiotics with potentiator compounds (Example 2); assay type: cell-based, Stenotrophomonas maltophilia
Experimental: as §1, §2, §3, §4, §5

[14] = test system: Enterobacter aerogenes ATCC 13048; assay: Colistin broth microdilution MIC with potentiator compounds (Example 1); assay type: cell-based; conditions: E. aerogenes ATCC 13048; MIC in the presence of 1.0% DMSO / MIC in the presence of 0.1 mM potentiator compound and 1.0% DMSO; positive = increased, negative = decreased susceptibility, 1 = no effect
[15] = test system: Pseudomonas aeruginosa PAO1; assay: as above; assay type: cell-based; conditions: P. aeruginosa PAO1; MIC in the presence of 1.0% DMSO / MIC in the presence of 0.1 mM potentiator compound and 1.0% DMSO; positive = increased, negative = decreased susceptibility, 1 = no effect
[16] = MIC in 1.0% DMSO / MIC with 0.1 mM potentiator compound and 1.0% DMSO
[17] = any of ciprofloxacin, amikacin, levofloxacin, tigecycline, imipenem, TMP/SMX (1:19), 0.1 mM potentiator, 1.0% DMSO, 'none' = no antibiotic potentiated

Compound	Fold increase in bacterial susceptibility to antibiotic indicated (A. baumannii 6963 [1])	Fold increase in bacterial susceptibility to TMP/SMX (A. baumannii 6799 [2])	Fold increase in bacterial susceptibility to antibiotic indicated (S. maltophilia 257 [3])	Fold increase in bacterial susceptibility to colistin [4] [fold]	Fold increase in bacterial susceptibility to colistin [5] [fold]	Fold increase in bacterial susceptibility to colistin (A. baumannii 6963 [6])	Fold increase in bacterial susceptibility to colistin (A. baumannii 6799 [7])	Fold increase in bacterial susceptibility to TMP/SMX (A. baumannii ATCC 15308)	Fold increase in bacterial susceptibility to colistin (S. maltophilia 257 [8])	Fold increase in bacterial susceptibility to colistin (S. maltophilia M30)	Fold increase in bacterial susceptibility to colistin [9]	Fold increase in bacterial susceptibility to colistin [10]	Fold increase in bacterial susceptibility to colistin [11]	Fold increase in bacterial susceptibility to colistin [12]	Fold increase in bacterial susceptibility to Tigecycline [13, 16]	Fold increase in bacterial susceptibility to colistin [14] [fold]	Fold increase in bacterial susceptibility to colistin [15]	Fold increase in bacterial susceptibility to antibiotic indicated (P. aeruginosa ATCC 27853)	also measured
O=C(CCCN1C(=O)c2cccc3cccc(c23)C1=O)N1CCN(c2ccccc2O)CC1 [IIA, 2-[4-[4-(2-hydroxyphenyl)piperazin-1-yl]-4-oxobutyl]benzo[de]isoquinoline-1,3-dione]	none	Amikacin (2) TMP/SMX (2) fold	none	1	-2	+2 fold	+2 fold	Amikacin (2) TMP/SMX (2) fold	1 fold	+8 fold	+4 fold	+2 fold	+4 fold	+2 fold	Tigecycline (2) fold	1	1 fold	–	Fold increase in bacterial susceptibility to Imipenem (P. aeruginosa ATCC 27853; [16]): Imipenem (2) fold; Fold increase in bacterial susceptibility to Amikacin (A. baumannii 6799 [2]; MIC in 1.0% DMSO / MIC with 0.1 mM compound and 1.0% DMSO): Amikacin (2) TMP/SMX (2) fold; Fold increase in bacterial susceptibility to Amikacin (A. baumannii ATCC 15308; [16]): Amikacin (2) TMP/SMX (2) fold
CCOC(=O)c1cc2cc(C(=O)N3CCN(Cc4cccc(C(F)(F)F)c4)CC3)ccc2[nH]1 [IIB, ethyl 5-[4-[[3-(trifluoromethyl)phenyl]methyl]piperazine-1-carbonyl]-1 H-indole-2-carboxylate]	none	TMP/SMX (2) fold	none	1	1	+2 fold	+2 fold	TMP/SMX (2) fold	+4 fold	+16 fold	+4 fold	+4 fold	>8 fold	+2 fold	–	1	+2 fold	none	Fold increase in bacterial susceptibility to antibiotic indicated [13, 17]: none
O=C(NCC(=O)N1CCN(c2cccc(Cl)c2)CC1)c1cccc(NC(=O)c2cccnc2)c1 [IIC, N-[3-[[2-[4-(3-chlorophenyl)piperazin-1-yl]-2-oxoethyl]carbamoyl]-phenyl]pyridine-3-carboxamide]	–	–	–	1	1	+2 fold	+2 fold	–	1 fold	+16 fold	+4 fold	1 fold	+4 fold	1 fold	–	1	1 fold	–	–
N#Cc1cccc(CN2CCC(c3cnn(Cc4cccc(C#N)c4)c3)CC2)c1 [IID, 3-[[4-[1-[(3-cyanophenyl)methyl]pyrazol-4-yl]piperidin-1-yl]methyl]-benzonitrile]	–	–	–	1	1	+4 fold	1 fold	–	1 fold	+16 fold	+8 fold	1 fold	+4 fold	1 fold	Ciprofloxacin (2) Tigecycline (2) fold	1	1 fold	none	Fold increase in bacterial susceptibility to antibiotic indicated (A. baumannii ATCC 15308; [17]): none; Fold increase in bacterial susceptibility to Ciprofloxacin [13, 16]: Ciprofloxacin (2) Tigecycline (2) fold
